Test results taken from paper PMC9481570, “A small molecule antagonist of SMN disrupts the interaction between SMN and RNAP II” (Nature Communications, 2022).

Legend:
[1] = target: T1, TDRD3_Y566W (Homo sapiens, UniProt Q9H7E2, Y566W); assay: ITC binding to TDRD3 mutant Y566W; details: Supplementary Fig. 11b, iTC-200; read-out: Kd, ITC binding curve, TDRD3_Y566W
T1 construct: TDRD3 (aa 554–611); His (N, cleaved yes); made in house; host or cells: E. coli BL21 (DE3) Codon plus RIL
Text: (§1) The coding DNA fragments of following Tudor domains were cloned into pET28-MHL vector: SMN (aa 82–147), UHRF1 (aa 126–285), SMNDC1 (aa 53–130), TDRD3 (aa 554–611), SND1 (aa 650–910), TDRD2 (aa 327–420), FXR1 (aa 2–132), PHF1 (aa 28–87), SGF29 (aa 115–293), JMJD2A (aa 897–1101), 53BP1 (aa 1483–1606), SETDB1 (aa 190–410), LBR (aa 1–67), ZGPAT (aa 120–271). The coding regions of chromodomain of CBX7 (aa 8–62), PWWP domain of DNMT3A (aa 275–417), WD40 repeats of WDR5 (aa 24–334) and CW domain of ZCWPW2 (aa 21–78) were also subcloned into pET28-MHL vector to generate N-terminally His-tagged fusion protein. The MBT repeats of L3MBTL1 (aa 200–522) and L3MBTL2 (aa 170–625) were subcloned into pET28GST-LIC vector to generate N-terminally GST-His-tagged fusion protein. All the plasmids were generated by ligase independent cloning (Vazyme Biotech, C112 or ABclonal Technology, RK21020). […] The molecular weight of all protein samples was measured by mass spectrometry.
(§2) For the ITC measurement, the concentrated proteins were diluted into 20 mM Tris-HCl, pH 7.5, 150 mM NaCl (ITC buffer); the lyophilized compounds were dissolved in the same buffer, and the pH value was adjusted by adding 2 M NaOH or 2 M HCl. […] Compound concentrations were calculated from the mass and the volume of the solvent. […]

[2] = target: T2, SMN_W102Y (Homo sapiens, UniProt Q16637, W102Y); assay: ITC binding to SMN Tudor mutant W102Y; details: Fig. 3d
T2 construct: SMN (aa 82–147); His (N, cleaved yes); made in house; host or cells: E. coli BL21 (DE3) Codon plus RIL
T2 sequence (Q16637 82-147 W102Y): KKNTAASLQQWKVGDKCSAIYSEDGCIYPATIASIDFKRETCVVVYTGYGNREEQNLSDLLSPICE
Text: as §1, §2

[3] = target: T3, SMN_Y127F (Homo sapiens, UniProt Q16637, Y127F); assay: ITC binding to SMN Tudor mutant Y127F; details: Fig. 3d
T3 construct: cloned into pET28-MHL vector: SMN (aa 82–147); His (N, cleaved yes); made in house; host or cells: E. coli BL21 (DE3) Codon plus RIL
T3 sequence (Q16637 82-147 Y127F): as the sequence (Q16637 82-147 W102Y) above, with Y21W, Y46F counted along it
Text: as §1, §2

[4] = target: T4, SMN (Homo sapiens, UniProt Q16637); assay: Biotin-Cmpd 1 pulldown from U2OS cell lysates and western blotting, SMN; type: binding; details: U2OS cell lysate, 200 μM biotin-free competitor, 20 μM biotin-Cmpd 1
T4 construct: endogenous in cells; host or cells: U2OS
T4 sequence (Q16637 whole entry): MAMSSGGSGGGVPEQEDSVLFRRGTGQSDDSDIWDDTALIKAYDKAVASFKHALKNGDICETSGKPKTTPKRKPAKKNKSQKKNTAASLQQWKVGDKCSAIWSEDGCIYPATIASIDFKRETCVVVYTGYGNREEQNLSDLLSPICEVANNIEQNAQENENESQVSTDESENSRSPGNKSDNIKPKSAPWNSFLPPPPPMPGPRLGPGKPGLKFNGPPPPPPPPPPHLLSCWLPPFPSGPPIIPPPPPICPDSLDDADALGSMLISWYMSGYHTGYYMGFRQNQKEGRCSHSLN
Procedure: U2OS cells were lysed in RIPA buffer (140 mM NaCl, 10 mM Tris-HCl, pH 7.6, 1% Triton, 0.1% sodium deoxycholate, 1 mM EDTA) containing protease inhibitors (Roche, 05892791001). The cell lysate was incubated with 20 μM biotin-Cmpd 1 overnight at 4 °C, then 30 μL streptavidin beads (Thermo Fisher, 20353) was added and incubated at 4 °C for 1 h. The beads were then washed with RIPA buffer for 3 times, 10 min/time and loading buffer was added and boiled for 5 min for elution. The eluted samples were separated by SDS-PAGE for western blotting (SMN monoclonal antibody, BD Transduction Laboratories, 610646, clone No. 8, dilution of 1:1000; TDRD3 rabbit monoclonal antibody, Cell signaling, 5492, clone No. 5492, dilution of 1:1000; SND1 polyclonal antibody, Bethyl, A302-883A, dilution of 1:2000; RFP polyclonal antibody, Abcam, ab62341, dilution of 1:1000; GFP monoclonal antibody, Santa Cruz Biotechnology, sc-9996, dilution of 1:1000; Streptavidin-Horseradish Peroxidase (HRP), Invitrogen, SA10001, dilution of 1:5000) as previously described[52],[53]. For the competition analysis, 200 μM biotin-free compound 1 or compound 15 was added at the same time when the biotin-Cmpd 1 was incubated with the cell lysates.

[5] = target: T5, DNMT3A (PWWP) (Homo sapiens, UniProt Q9Y6K1); assay: ITC binding to PWWP domain of DNMT3A; details: Fig. 1c
T5 construct: DNMT3A (aa 275–417); His (N, cleaved yes); made in house; host or cells: E. coli BL21 (DE3) Codon plus RIL
T5 sequence (Q9Y6K1 275-417): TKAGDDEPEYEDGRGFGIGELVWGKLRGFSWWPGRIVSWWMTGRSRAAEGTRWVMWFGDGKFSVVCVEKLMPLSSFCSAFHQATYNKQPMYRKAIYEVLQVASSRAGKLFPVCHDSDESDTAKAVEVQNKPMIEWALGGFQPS
Text: as §1, §2

[6] = target: T6, JMJD2A (Homo sapiens, UniProt O75164); assay: ITC binding to JMJD2A; details: Fig. 1c
T6 construct: JMJD2A (aa 897–1101); His (N, cleaved yes); made in house; host or cells: E. coli BL21 (DE3) Codon plus RIL
T6 sequence (O75164 897-1064): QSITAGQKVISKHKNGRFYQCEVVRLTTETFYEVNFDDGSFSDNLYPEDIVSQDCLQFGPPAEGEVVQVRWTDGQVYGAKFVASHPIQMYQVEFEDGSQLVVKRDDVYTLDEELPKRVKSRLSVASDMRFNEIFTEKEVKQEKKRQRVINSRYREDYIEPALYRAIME
Text: as §1, §2

T1 sequence (Q9H7E2 554-611 Y566W): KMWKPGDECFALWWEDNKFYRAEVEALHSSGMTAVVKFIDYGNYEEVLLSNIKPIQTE

Cn1c2c(c(=N)c3c1CCC3)CCC2 [Compound 1, 4-methyl-2,3,4,5,6,7-hexahydrodicyclopenta[b,e]pyridin-8(1H)-imine]
Kd [1]: 3.8 ± 0.4 µM | Kd [2]: 8.3 ± 1.1 µM | Kd [3]: 4 ± 0.2 µM | competition of the pulldown of SMN by biotin-Cmpd 1 [4]: competed out | Kd [5]: > 244 µM | Kd [6]: > 244 µM
